Reference: patent US6683027B2, “Herbicidal mixtures” (BASF Aktienegesellschaft, priority 2000, dated 2004)

Tests used:
Assay type in all cases: in vivo
Alopecurus myosuroides [1] = assay: greenhouse pre-emergence trial, percent damage vs untreated control 21 days after treatment; settings: 60 g/ha, ALOMY, Example 1A
Lamium purpureum [2] = assay: as above; settings: LAMPU, Example 1A
Lolium perenne [3] = assay: as above; settings: LOLPE
Papaver rhoeas [4] = assay: as above; settings: PAPRH; for flufenacet alone (% control): Example 2
Setaria viridis [5] = assay: as above; settings: SETVI, Example 1A
Stellaria media [6] = assay: as above; settings: STEME
Veronica persica [7] = assay: as above; settings: VERPE; for IPU alone (% control): Example 1A; for flufenacet alone (% control): Example 2
Galium aparine = assay: as above; settings: GALAP; for flufenacet alone (% control): Example 2
Alopecurus myosuroides [8] = assay: greenhouse post-emergence trial, percent damage vs untreated control 21 days after treatment; settings: ALOMY, Example 1B
Method: (§1) The trials are carried out under greenhouse conditions in pre- and post-emergence applications. The plant seeds are sown in pots containing a loamy sand soil (0.5 l). The herbicides are applied as single treatments, or in a combination comprising a compound of formula I and compound selected from group (2) as defined above, before or after emergence of weeds and crop. The herbicidal performance is assessed as percent damage in comparison to the untreated control plants. The assessment is done 21 days after the treatment. Wheat and barley are treated at the 3-4 leaf stage, the broad-leaf weeds at the 2-4 leaf stage and annual grasses at the 2-3 leaf stage.

Apera spica-venti = assay: as above; settings: 60 g/ha, APESV, Example 1B
Method: as §1

Lamium purpureum [9] = assay: as above; settings: 60 g/ha, LAMPU, Example 1B
Method: as §1

Lolium perenne [10] = assay: as above; settings: 60 g/ha, LOLPE, Example 1B
Method: as §1

Papaver rhoeas [11] = assay: as above; settings: PAPRH, Example 1B
Method: as §1

Setaria viridis [12] = assay: as above; settings: SETVI, Example 1B
Method: as §1

Stellaria media [13] = assay: as above; settings: 60 g/ha, STEME, Example 1B
Method: as §1

Veronica persica [14] = assay: as above; settings: VERPE, Example 1B
Method: as §1

Matricaria inodora = assay: greenhouse pre-emergence trial, percent damage vs untreated control 21 days after treatment; settings: MATIN, Example 2

## CC(C)c1ccc(NC(=O)N(C)C)cc1 [IPU]
Alopecurus myosuroides [1]
  IPU alone (% control): 43%
Lamium purpureum [2]; 60 g/ha
  IPU alone (% control): 0%
Lamium purpureum [2]; 120 g/ha
  IPU alone (% control): 15%
Lamium purpureum [2]; 240 g/ha
  IPU alone (% control): 70%
Lolium perenne [3]; 60 g/ha, Example 1A
  IPU alone (% control): 40%
Papaver rhoeas [4]; 60 g/ha, Example 1A
  IPU alone (% control): 0%
Setaria viridis [5]; 60 g/ha
  IPU alone (% control): 0%
Setaria viridis [5]; 120 g/ha
  IPU alone (% control): 20%
Setaria viridis [5]; 240 g/ha
  IPU alone (% control): 65%
Stellaria media [6]; 60 g/ha, Example 1A
  IPU alone (% control): 15%
Veronica persica [7]; 60 g/ha
  IPU alone (% control): 0%
Veronica persica [7]; 120 g/ha
  IPU alone (% control): 0%
Veronica persica [7]; 240 g/ha
  IPU alone (% control): 0%
Galium aparine; 120 g/ha, Example 1A
  IPU alone (% control): 0%
Alopecurus myosuroides [8]; 60 g/ha
  IPU alone (% control): 15%
Alopecurus myosuroides [8]; 120 g/ha
  IPU alone (% control): 38%
Apera spica-venti
  IPU alone (% control): 50%
Lamium purpureum [9]
  IPU alone (% control): 0%
Lolium perenne [10]
  IPU alone (% control): 38%
Papaver rhoeas [11]; 60 g/ha
  IPU alone (% control): 0%
Papaver rhoeas [11]; 120 g/ha
  IPU alone (% control): 25%
Papaver rhoeas [11]; 240 g/ha
  IPU alone (% control): 48%
Setaria viridis [12]; 60 g/ha
  IPU alone (% control): 15%
Setaria viridis [12]; 120 g/ha
  IPU alone (% control): 40%
Stellaria media [13]
  IPU alone (% control): 25%
Veronica persica [14]; 60 g/ha
  IPU alone (% control): 15%
Veronica persica [14]; 240 g/ha
  IPU alone (% control): 5%

## CC(C)N(C(=O)COc1nnc(C(F)(F)F)s1)c1ccc(F)cc1 [flufenacet]
Lolium perenne [3]; 15 g/ha, Example 2
  flufenacet alone (% control): 30%
Papaver rhoeas [4]; 15 g/ha
  flufenacet alone (% control): 0%
Papaver rhoeas [4]; 30 g/ha
  flufenacet alone (% control): 0%
Papaver rhoeas [4]; 60 g/ha
  flufenacet alone (% control): 0%
Stellaria media [6]; 30 g/ha, Example 2
  flufenacet alone (% control): 0%
Veronica persica [7]; 15 g/ha
  flufenacet alone (% control): 0%
Veronica persica [7]; 30 g/ha
  flufenacet alone (% control): 10%
Veronica persica [7]; 60 g/ha
  flufenacet alone (% control): 10%
Galium aparine; 15 g/ha
  flufenacet alone (% control): 0%
Galium aparine; 30 g/ha
  flufenacet alone (% control): 10%
Galium aparine; 60 g/ha
  flufenacet alone (% control): 55%
Matricaria inodora; 15 g/ha
  flufenacet alone (% control): 0%
Matricaria inodora; 30 g/ha
  flufenacet alone (% control): 0%
